Measurements published in a melting point compilation (Tetko et al.; mined from patent text by program, amines drawn as free bases though some values may be those of a salt).

| melting point [°C] | SMILES |
| --- | --- |
| 153 to 154 | Cc1cccc(COc2cccc(OCc3ccc4cc(F)ccc4n3)c2)c1C(=O)O |
| 143 to 144 | COc1cccc2c1C(C)(C)C(=O)N2 |
| 164 to 167 | CN(C)c1sc2cc(OCc3ccccc3)ccc2c1C(=O)c1ccc(F)c(C(F)(F)F)c1 |
| 138 to 144 | COc1cccc2c1SCC(C(=O)O)C2 (stereo not drawn) |
| 56 to 57 | CCOCCOc1ccc(CCNC(=O)OC(C)(C)C)cc1 |
| 59 to 61 | Nc1ccc(NC2CCCCC2)cc1 |
| 160 to 162 | Cc1nc2cc(C(F)(F)F)c(Cl)c([N+](=O)[O-])c2n1N(C)C |
| 99 to 106 | Cc1cc(CC=CCc2cc(C)c(O)c(C(C)(C)C)c2)cc(C(C)(C)C)c1O |
| 166 | CC(C)(C)c1cc(C=CC(=O)NN)cc(C(C)(C)C)c1O |
| 224 to 226 | CCc1ccc2oc(C(=O)Nc3ccc(-c4ccc(S(=O)(=O)NC(C(=O)O)C(C)C)cc4)cc3)c(C)c2c1OCc1ccccc1 (stereo not drawn) |
| 242 to 244 | O=C1c2cccc3cc(OCCO)cc(c23)C(=O)N1O |
| 72 to 77 | COC(=O)N=C(N)SC |
| 153 to 161 | CC(C)(C)OC(=O)NC[C@H]1CN(c2ccc3c(c2)CC(C(C)(C)C)N3C=O)C(=O)O1 (stereo partly drawn) |
| 145 to 147 | CS(=O)(=O)Nc1ccc(CC(=O)O)cc1 |
| 157 to 159 | COCc1cc2cc(CN3CCOCC3)cc3c(=O)c(C(=O)NCc4ccc(Cl)cc4)cn1c23 |
| 87 to 88 | COc1ccc(Oc2cccc(C)c2)c(NS(C)(=O)=O)c1 |
| 217 to 219 | CCOC(=O)N1CCn2c(nc(-c3ccncn3)cc2=O)C(NCc2ccc(OC)cc2)C1 (racemic) |
| 197 to 199 | C[C@H](CO)Nc1nc(SCc2cccc(F)c2F)nc2[nH]c(=O)c(NCCO)nc12 |
| 204 to 205 | Cc1c(NC(=O)C(CSC(=O)c2ccccc2)Cc2ccccc2)cccc1C(=O)O (stereo not drawn) |
| 172 to 174 | CCCC(CCC)c1ccc(COc2ccc(-c3csc(COc4cncc(C(=O)O)c4)n3)cc2)cc1 |
| 63 | Cc1nnc(SCc2nc(NCCCOc3cccc(CN4CCCCC4)c3)n(C)n2)s1 |
| 180 | NC(=O)c1nccn1C1Sc2ccccc2C1=O (stereo not drawn) |
| 165 | Cc1c(C(=O)Nc2ccc(SCCCO)c(C#N)c2)cnn1-c1ccc(Cl)cc1 |
| 284 to 285 | COc1ccc(-c2cnc3[nH]cc(C#N)c3n2)cc1OC |

| melting point [°C] | SMILES |
| --- | --- |
| 132 to 133 | CNC(=O)c1cc2c(Oc3ccc(OC(F)(F)F)cc3)cncc2s1 |
| 124 to 125 | N#CC(=NO)c1cccc(Oc2ccccc2)c1 |
| 111 to 112 | Fc1ccc(-c2cc(Cl)nc3c2CCCC3)cc1 |
| 106 to 109 | CNC(CNC(=O)c1nc(Cl)c(N)nc1N)CC(=O)NCCN (stereo not drawn) |
| 260 to 263 | O=c1[nH]cc(-c2ccccc2)c2ncccc12 |
| 171 to 174 | O=C1CNc2cc(Cl)ccc2N1 |
| 282 to 284 | CC(C)(C)C(C)(C)Nc1nc(NC(C)(C)C(C)(C)C)nc(N2CC3CCC(CC3)C2)n1 |
| > 250 | CCOCc1nc2c(N)nc3ccccc3c2n1CCC(N)=O |
| 145 | CCNc1c(C#N)cnn1-c1ccc(Cl)c(Cl)c1Cl |
| 86 to 87 | COC(=O)C=Cc1ccc(CO)cc1 |
| 142 | Cc1cc(Sc2cc(C)c(O)c(C)c2)cc(C)c1O |
| 274 to 282 | COc1ccc(-c2c3nn(-c4ccc(OC)cc4)c(=O)c-3c[nH]c2C)cc1 |
| 100 to 101 | O=[N+]([O-])c1c(CO)cccc1CO |
| 75 | O=C(c1cccs1)c1ccc(Cl)cc1Cl |
| 92 to 95 | CCNC(=O)[C@@H]1Cc2ccccc2N1 |
| 132 to 135 | O=[N+]([O-])c1ccc2c(c1)OC(CO)CO2 (stereo not drawn) |
| 30 | CC1C(NC(=O)OCc2ccccc2)C(=O)N1OCC(=O)OC(C)(C)C (stereo not drawn) |
| 230 to 232 | CC(C)(C)C(=O)OCC(COC(=O)C(C)(C)C)OCn1cnc2c(=O)[nH]c(N)nc21 |
| 77 to 78 | CC(C)(C)OC(=O)CN(Cc1ccccn1)c1cc(C(F)(F)F)c(Br)c(C(F)(F)F)c1 |
| 228 to 230 | N#CC(C(=O)Nc1ccccc1)C(=O)c1nn(-c2ccccc2)c2c1CSc1ccccc1-2 (stereo not drawn) |
| 193 | CC(C)Oc1ccccc1C1(N[C@H](CO)c2ccccc2)C(=O)Nc2ccc(Cl)cc21 (stereo partly drawn) |
| 55 to 60 | CC(C)(C)OC(=O)N1CC2CCCCC(C1)C2C=O (stereo not drawn) |
| > 300 | NCCOCC(P(=O)(O)O)P(=O)(O)O |
| 71 to 75 | FC(F)(F)c1[nH]c(-c2ccc(Cl)cc2)c(C(F)(F)F)c1Br |

| melting point [°C] | SMILES |
| --- | --- |
| 63 to 66 | CCCC(=O)Nc1cscn1 |
| 73 to 74 | C=CCn1cnc2c1c(=O)n(CCC(C)C(C)=O)c(=O)n2C (stereo not drawn) |
| 88 to 91 | Oc1ccc(-c2nn(-c3cc(F)ccc3F)c3cc(O)ccc23)c(O)c1 |
| 185 to 187 | CCC(CC)C(NC(=O)c1ccc(Cl)cc1)NC(=NC#N)Nc1cccnc1 (stereo not drawn) |
| 79 to 80 | CCOC(=O)CC[C@H](NC(=O)c1csc(CCCc2coc3nc(N)nc(N)c23)c1)C(=O)OCC |
| 203 to 205 | COc1ccc(-c2cc3cc(F)c(F)cc3[nH]2)cc1NC(=S)Nc1cc(Cl)cc(Cl)c1 |
| 193 to 194 | COc1ccc2c(c1OC)C(=O)OC21CN(C)Cc2ccccc21 (stereo not drawn) |
| 112 to 113 | CON(C)C(=O)CCc1nnc(-c2ccc3c(c2)CCO3)o1 |
| 149 to 150 | C/C=C/C(=O)NC(=O)OC |
| 84 | COCCOCCOCCC1(CCOCCOCCOC)c2cc(C#Cc3ccc(C=O)s3)ccc2-c2ccc(C#Cc3ccc(C=O)s3)cc21 |
| > 300 | COC(=O)C=Cc1[nH]c(=O)c2c(ccc3nc(Nc4c(Cl)cccc4Cl)n(C)c32)c1C |
| 175 to 176 | Cc1c(CC(=O)O)c2cc(OCc3nc4ccccc4s3)ccc2n1Cc1ccc(Cl)cc1 |
| 173 to 176 | COc1cc(OC)c(C(=O)CC(=O)c2cc(OC)c(OC)cc2OC)cc1OC |
| 180 to 184 | NC(=O)Cc1ccc(OCCc2coc(-c3ccccc3)n2)cc1 |
| 172 to 175 | CNc1ccc2sc3ccccc3c(=O)c2c1 |
| 129 to 130 | Cc1ccc(S(=O)(=O)N(c2ccc(F)cc2[N+](=O)[O-])C(C)C)cc1 |
| 236 to 239 | CCc1nc2c(cnn2CC)c(NC2CCOCC2)c1CNC(=O)c1cc(C)cc(C(=O)O)c1 |
| 69 to 71 | CC(C)C(C(=O)CCC(NC(=O)OCc1ccccc1)C(=O)OCc1ccccc1)C(=O)OC(C)(C)C (stereo not drawn) |
| 276 to 281 | Cc1ccc(C(=O)NC(=O)Nc2ccc3c(c2)NC(=O)/C3=C\c2ccc[nH]2)cc1 |
| 134 to 136 | CCOC(=O)c1ccc(NC(=O)c2ccc3c(c2)OCCO3)cc1 |
| 156 to 158 | CN(C)Cc1ccc(CSCCNC2=NS(=O)(=O)N=C2N)o1 |
| 238 to 239 | COc1cc(Cc2cnc(N)nc2N)cc2c1OC(C)(C)C=C2Br |

| SMILES | melting point [°C] |
| --- | --- |
| O=C(c1ccn2c1CSC2c1cccnc1)c1cn(Cc2nnn[nH]2)c2cc(-c3ccc(F)cc3)ccc12 (stereo not drawn) | 110 to 118 |
| COc1cc2c(cc1Br)C=C(C)N(C(=O)C1CC1)N=C2c1ccc(N)cc1 | 224 to 226 |
| CN(C)C(=N[N+](=O)[O-])N(C)Cc1cnc(Cl)s1 | 101 to 102 |
